Data set [1] concerns the target T1, HK2 (Homo sapiens, UniProt P52789).
T1 construct: made in house; host or cells: E. coli BL21 (DE3)
T1 sequence (P52789 1-917): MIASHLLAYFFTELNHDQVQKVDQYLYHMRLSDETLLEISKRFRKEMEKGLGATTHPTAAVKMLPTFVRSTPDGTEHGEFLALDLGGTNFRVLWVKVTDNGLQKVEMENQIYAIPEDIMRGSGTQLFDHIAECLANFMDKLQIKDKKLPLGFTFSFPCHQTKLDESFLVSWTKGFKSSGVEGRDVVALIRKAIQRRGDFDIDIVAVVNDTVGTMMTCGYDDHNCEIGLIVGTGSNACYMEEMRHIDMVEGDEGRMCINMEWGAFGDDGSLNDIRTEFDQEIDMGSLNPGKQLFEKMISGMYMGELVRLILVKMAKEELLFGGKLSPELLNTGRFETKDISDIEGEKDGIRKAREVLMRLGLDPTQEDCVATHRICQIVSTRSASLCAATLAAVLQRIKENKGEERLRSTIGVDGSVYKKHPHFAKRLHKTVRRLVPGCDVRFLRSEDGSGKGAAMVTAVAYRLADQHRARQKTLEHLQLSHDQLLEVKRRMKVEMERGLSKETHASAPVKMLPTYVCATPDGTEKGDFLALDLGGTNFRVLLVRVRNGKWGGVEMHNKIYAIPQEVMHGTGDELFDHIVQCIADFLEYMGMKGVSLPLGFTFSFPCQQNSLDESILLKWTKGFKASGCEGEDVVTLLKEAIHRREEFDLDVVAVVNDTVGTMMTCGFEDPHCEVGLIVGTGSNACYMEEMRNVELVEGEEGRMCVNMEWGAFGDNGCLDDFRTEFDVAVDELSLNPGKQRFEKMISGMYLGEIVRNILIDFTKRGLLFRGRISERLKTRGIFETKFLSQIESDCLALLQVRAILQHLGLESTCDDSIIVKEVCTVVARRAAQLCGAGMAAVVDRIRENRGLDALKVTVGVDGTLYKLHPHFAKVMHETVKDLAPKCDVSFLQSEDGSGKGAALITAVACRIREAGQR
As to the kind of experiment: In vitro enzyme inhibition assay (G6P-DH coupled, NADH 340 nm). The data set is classed as biochemical. Here is the method: Then 85 μL assay mix containing 100 mM Tris HCl pH 8.0, 5 mM MgCl2, 200 mM Glucose, 0.8 mM ATP, 1 mM NAD^+, 0.25 Units of G6P-DH, was added.

The target in data set [2] is T1, HK2. As to the kind of experiment: Microscale thermophoresis (MST) assay. The data set is classed as binding. The note with it: labelled HK2 20 nM, 25 °C. Here is the method: MST was used to analyze the binding affinity between potential ligands and receptors. The purified HK2 was labeled with the Monolith NT™ Protein Labeling Kit RED (Cat # L001) according to the supplied labeling protocol. Labelled HK2 was kept constant at 20 nM, and all tested samples were 1:1 diluted in a 20 mM HEPES (pH 7.4) and 0.05 (v/v) % Tween-20. After 10 min incubation at room temperature, samples were loaded into Monolith™ standard-treated capillaries. And the thermophoresis was measured at 25 °C after 30 min incubation on a Monolith NT.115 instrument (Germany). Furthermore, laser power was set to 20% or 40% using 30 sec on-time. The LED power was set to 100%. The dissociation constant Kd values were fitted by using the NTAnalysis software.
On the technique in general: Microscale thermophoresis detects binding through changes in fluorescence in a small temperature gradient.

The next data set deals with MCF-7. As to the kind of experiment: Cytotoxicity test (CCK-8). The note with it: Homo sapiens, MCF7; MCF-7, 48 h. The format is cell-based. Here is the method:
(§1) Met was used as a positive control. All experiments were performed in triplicate.

The test system of a further data set is SMMC-7721. As to the kind of experiment: Cytotoxicity test (CCK-8). The format is cell-based. The settings on record: Homo sapiens, SMMC-7721, 48 h. Here is the method: as §1
The test system of another data set is SW480. As to the kind of experiment: Cytotoxicity test (CCK-8). The format is cell-based. The note with it: Homo sapiens, SW480, 48 h. Here is the method:
as §1

For a further data set, the system named is Lovo. As to the kind of experiment: Cytotoxicity test (CCK-8). The format is cell-based. The settings on record: Homo sapiens, 48 h. Here is the method:
as §1

For a further data set, the system named is HCT116. The data set can be described thus: Cytotoxicity test (CCK-8). The data set is classed as cell-based. The settings on record: Homo sapiens, HCT-116; HCT116, 48 h. Here is the method: as §1
Data set [3] can be described thus: Cytotoxicity test (CCK-8). The data set is classed as cell-based. Here is the method: as §1
Details of data set [4]: method as in PMID 17551814. The settings on record: dose range of 500-2000 mg/Kg in mice; cited from earlier work.
Setting [5] is: recombinant HK2, n.i means no enzyme inhibition, read-out: Enzyme IC50.
[6] abbreviates: recombinant HK2, n.i means no enzyme inhibition.

The structures appear in SMILES notation. Read-outs that look alike come from different tables or passages of the source. Where only a bound is given, the exact number is not on record here.

What is called IC50 is the point on the concentration scale where inhibition reaches its midpoint. Regarding `O=C1O[C@H]([C@@H](O)CO)C(O)=C1O` [Vitamin C], the IC50 on HK2 [1] (setting [5]) was greater than 1000 µM.
On to `[H]/N=C(\N/C(=N/[H])NCCCCCCNC(=N)NC(=N)Nc1ccc(Cl)cc1)Nc1ccc(Cl)cc1` [Chlorhexidine], for which the “Enzyme IC50” value at HK2 [1] (setting [6]) is given as “n.i”.
One may read the Kd as the equilibrium constant for the complex coming apart. Consider `CN(C)C(=N)N=C(N)N` [Metformin], for which the Kd at HK2 [2] (read-out: Kd) is 3930 ± 282 µM. Moreover, the IC50 with MCF-7, with SMMC-7721, in the data set on SW480, with Lovo and with HCT116 was greater than 1000 µM in each case. Further, the IC50 at 48 h in data set [3] (African green monkey, Vero normal cells) is greater than 1000 µM; in [3] (human, LO2 normal cells) it was greater than 1000 µM.
As for `O=C(O)C(=O)CBr` [3-BrPA, 3-Bromopyruvate], the Kd on HK2 [2] (read-out: Kd) was 742 ± 96.8 µM.
`CNC[C@H](O)[C@@H](O)[C@H](O)[C@H](O)CO` [Meglumine] returned an IC50 at HK2 [1] greater than 1000 µM.
With `N[C@H]1C(O)O[C@H](CO)[C@@H](O)[C@@H]1O` (stereo partly drawn) [D-Glucosamine], the IC50 at HK2 [1] (setting [5]) is greater than 1000 µM.
For `O=C(O)c1cc(/N=N/c2ccc(S(=O)(=O)Nc3ccccn3)cc2)ccc1O` [Sulfasalazine], the IC50 at HK2 [1] (setting [5]) is greater than 1000 µM.
For the compound `O=CC[C@@H](O)[C@H](O)[C@H](O)CO` [2-DG, 2-Deoxyglucose], the Kd entry on HK2 [2] is “No binding affinity”. Moreover, the “therapeutic activity as a single agent” value in data set [4] is recorded as “does not have significant therapeutic activity”.
As for `O=C(CO)[C@@H](O)[C@H](O)[C@H](O)CO` [D-Fructose], the “Enzyme IC50” value on HK2 [1] (setting [6]) is “n.i ^C”.
Still for that read-out and setting: in the case of `NCCC(O)(P(=O)(O)O)P(=O)(O)O` [Pamidronate] it was “n.i”.

The values above are taken from PMC5399312 (Journal of Experimental & Clinical Cancer Research : CR, 2017).
